Like-named read-outs stand apart in the source and are kept apart here. Non-standard residues stand in square brackets, D forms with d. Residues, ends and D or L forms follow the SMILES beside them.
Legend:
[1] = Hydrophobicity by analytical RP-HPLC (%B at elution); format: physicochemical; conditions: chromatographic, analytical reversed-phase HPLC, Waters Symmetry C18 5 μm 4.6 × 250 mm; A: H2O + 0.1% TFA, B: 90:10 ACN-H2O + 0.1% TFA
Method: Peptide purity was determined as described previously by analytical RP-HPLC using a Waters 717 plus Autosampler, In-line Degasser AF, 600 Controller, and 2996 Photodiode Array Detector; the column used was a Waters Symmetry C18 column (5 μm, 4.6 mm × 250 mm, Milford, MA, USA). An aqueous acetonitrile (ACN) gradient with 0.1% TFA added (mixing eluent A: H2O + 0.1% TFA and eluent B: 90:10 ACN-H2O + 0.1% TFA) was employed using milli-Q water. Preparative RP-HPLC was performed by using a Waters XSelect Peptide CSH C18 OBDTM column (5 μm, 19 mm × 250 mm, Milford, MA, USA) with the same eluents as for analytical HPLC.
*Hydrophobicity as indicated by the percentage of mobile phase B (%B) at the peak elution time on analytical

E. coli (ATCC 25922) = format: cell-based, Escherichia coli; conditions: E. coli ATCC 25922, MHB-II, 37 °C, 18–24 h, triplicate
Method: (§1) The following bacteria were grown in cation-adjusted Muller-Hinton broth at 37 °C with shaking: A. baumannii (ATCC 19606), E. coli (ATCC 25922), K. pneumoniae (ATCC 13883), P. aeruginosa (ATCC 27853), and S. aureus (ATCC 29213).
(§2) The MIC experiments were performed in triplicate, as described in Jensen et al.. Briefly, all peptide stock solutions were prepared by dissolving each peptide in Milli-Q water to obtain a concentration of 10 mg/mL. A bacterial concentration of 10^6 CFU/mL was obtained through the dilution of an overnight culture (MHB-II medium). When the overnight culture was prepared, the OD was measured using a spectrophotometer and when an OD value between 0.2 and 0.4 was obtained, the culture was diluted to OD = 0.002. The MIC determination was carried out in 96-well polypropylene microtitre plates. […] A final bacterial inoculum of 5 × 10^5 CFU/mL per well was obtained by adding 50 μL bacterial suspension to the microtiter plates. The plates were incubated at 37 °C for 18–24 h. To verify the CFU, 10 μL of bacteria suspension was transferred to 990 μL 0.9 % saline solution, from which a 10-fold dilution was carried out. Then, 100 μL of the dilution was plated on an LB plate and left for bacterial growth overnight at 37 °C. Colistin and vancomycin were used as the positive controls.

[2] = system: A. baumannii (ATCC 19606); format: cell-based, Acinetobacter baumannii; conditions: A. baumannii ATCC 19606, MHB-II, 37 °C, 18–24 h, triplicate
Method: as §1, §2

[3] = system: colistin-susceptible strain A. baumannii ATCC 19606; conditions: at 4 × MIC and above; cited from earlier work
[4] = system: P. aeruginosa (ATCC 27853); format: cell-based, Pseudomonas aeruginosa; conditions: P. aeruginosa ATCC 27853, MHB-II, 37 °C, 18–24 h, triplicate
Method: as §1, §2

[5] = system: K. pneumoniae (ATCC 13883); format: cell-based, Klebsiella pneumoniae; conditions: K. pneumoniae ATCC 13883, MHB-II, 37 °C, 18–24 h, triplicate
Method: as §1, §2

S. aureus (ATCC 29213) = assay: MIC determination, broth microdilution; format: cell-based, Staphylococcus aureus; conditions: S. aureus ATCC 29213, MHB-II, 37 °C, 18–24 h, triplicate
Method: as §1, §2

human erythrocytes = conditions: 150 μM peptide; 0.5% (v/v) red blood cell suspension in PBS, 1 h at 37 °C, absorbance 414 nm; melittin positive control, PBS negative control; three wells
Method: PBS served as the negative control and 5 μM melittin served as the positive control. All melittin solutions were prepared in Protein LoBind Eppendorf tubes to prevent the adsorption of melittin to the inner surface of the tubes.
Preparation of peptide solutions and melittin: A 5 μM melittin solution in PBS was prepared the day before the hemolysis experiment. First, 150 μL of this solution was transferred to each of the positive control wells and stored in the fume hood to coat the wells. On the day of the experiment, the melittin solution was discarded and the wells were washed with 3 × PBS. A 2.5 μM melittin solution in PBS was prepared and 75 μL was transferred to the wells. PBS (150 μL) was used as the negative control. A solution of each peptide was prepared by dissolving the peptide in 0.5 mL PBS to obtain a concentration of 300 μM. Each peptide solution (150 μL) was transferred to the wells in three wells each in row A, and the plate was diluted down.
Preparation of the red blood cell suspension: 1 mL of type O- whole blood in citrate was transferred to a cryotube. The whole blood was washed with 3 × PBS; adding 3, 3, and 4 mL of PBS, respectively. In between, the blood was centrifuged for 8 min (3000, 3000, and 4000 rpm, respectively) and the supernatant was removed after each centrifugation. A 0.5% (v/v) blood suspension was prepared by adding 40 μL of the washed blood cells to 8 mL of PBS. Then, 75 μL of the red blood cell suspension was transferred to each well and mixed gently. The plate was sealed and incubated for 1 h at 37 °C. After incubation, the plate was centrifuged at 4000 rpm for 10 min. Afterwards, 60 μL of the supernatant from each well was quickly transferred to an ELISA plate.
The absorbance was determined at 414 nm, and Equation (1) below was used to calculate the hemolytic activity of the peptides.

E. coli = assay: Time-kill assay; format: cell-based, Escherichia coli; conditions: start 5 × 10^5 CFU/mL, MHB-II 37 °C, n = 3
Method: The limit of detection was set to 10 CFU/mL, corresponding to a single viable colony after the overnight incubation of 100 μL bacteria suspension on an agar plate.
An overnight culture (MHB-II media) of E. coli was diluted 1:100 in preheated MHB-II, placed in a water bath (37 °C), and allowed to grow until OD600 = 0.2–0.4 was reached. The bacterial suspension was then diluted 1:10 in 25 mL preheated MHB-II, placed in a water bath (37 °C), and then allowed to grow until an OD = 0.2 was reached. […] At time points 0, 1, 3, 5, and 24 h, 250 μL of each sample suspension were transferred to a 0.9 % saline solution in a 1-mL Eppendorf tube. The bacterial cells were washed twice in 0.9% saline, spun down (10,000× g for 5 min) and resuspended in 250 μL 0.9% saline. Then, 10-fold dilution series were prepared and aliquots of 10 μL were spotted onto LB Agar. In addition, 100 μL of undiluted bacterial suspension (except the control sample) was plated out on a separate LB plate. All of the plates were incubated (37 °C) overnight and the results were read after incubation.

| SMILES | %B (hydrophobicity: percentage of mobile phase B at the peak elution time) [1] [%B] | MIC EC (E. coli (ATCC 25922); inoculum 5 × 10^5 CFU/mL) [µg/mL] | MIC EC (E. coli (ATCC 25922); value in brackets) [µM] | MIC AB ([2]; inoculum 5 × 10^5 CFU/mL) [µg/mL] | MIC AB ([2]; value in brackets) [µM] | number of CFU in time-kill [3] | MIC PA ([4]; inoculum 5 × 10^5 CFU/mL) [µg/mL] | MIC PA ([4]; value in brackets) [µM] | MIC KP ([5]; inoculum 5 × 10^5 CFU/mL) [µg/mL] | MIC KP ([5]; value in brackets) [µM] | MIC SA (S. aureus (ATCC 29213); inoculum 5 × 10^5 CFU/mL) [µg/mL] | MIC SA (S. aureus (ATCC 29213); value in brackets) [µM] | % hemolysis of human erythrocytes (human erythrocytes) [%] | viable cells after 24 h (E. coli; 3 × MIC (12 μg/mL)) | viable cells after 24 h (E. coli; 5 × MIC (20 μg/mL)) |
| --- | --- | --- | --- | --- | --- | --- | --- | --- | --- | --- | --- | --- | --- | --- | --- |
| CC[C@@H](C)[C@@H](NC(=O)[C@@H](CCCCN)NC(=O)[C@@H](CCCCN)NC(=O)[C@@H](Cc1ccccc1)NC(=O)[C@@H](CC(C)C)NC(=O)[C@@H](CCCCN)NC(=O)[C@H](N)CCCCN)C(=O)N[C@H](CC(C)C)C(=O)N[C@H](CCCNC(=N)N)C(=O)N[C@H](Cc1ccc(O)cc1)C(=O)N[C@H](CC(C)C)C(N)=O [BP214, reference compound] (H-[dK][dK][dL][dF][dK][dK][dI][dL][dR][dY][dL]-NH2; N-terminus assumed) | 50.8 | 4 | 2.8 | 2 | 1.4 | below the detection level | 4 | 2.8 | 2 | 1.4 | 8 | 5.5 |  |  |  |
| CC[C@@H](C)[C@H]1NC(=O)CN(C(=O)[C@@H](CCCCN)NC(=O)[C@@H](CCCCN)NC(=O)[C@@H](Cc2ccccc2)NC(=O)[C@@H](CC(C)C)NC(=O)[C@@H](CCCCN)NC(=O)[C@H](N)CCCCN)CCCC[C@H](C(N)=O)NC(=O)[C@@H](Cc2ccc(O)cc2)NC(=O)[C@@H](CCCNC(=N)N)NC(=O)[C@@H](CC(C)C)NC1=O [compound 9] | 46.6 | > 64 | > 42.6 | > 64 | > 42.6 |  | > 64 | > 42.6 | > 64 | > 42.6 | > 64 | > 42.6 | 3 |  |  |
| CCCCCCCCCC(=O)N[C@H](CCCCN)C(=O)N[C@H](CCCCN)C(=O)N[C@H](CC(C)C)C(=O)N[C@H](Cc1ccccc1)C(=O)N[C@H](CCCCN)C(=O)N[C@H](CCCCN)C(=O)N[C@@H](C(=O)N[C@H](CC(C)C)C(=O)N1CCCC[C@H](C(N)=O)NC(=O)[C@@H](Cc2ccc(O)cc2)NC(=O)[C@@H](CCCNC(=N)N)NC(=O)C1)[C@H](C)CC [compound 10] | 62.7 | 4 | 2.4 | 4 | 2.4 |  | 4 | 2.4 | 8 | 4.8 | 4 | 2.4 | 81 |  |  |
| CCCCCCCCCC(=O)N[C@H](CCCCN)C(=O)N[C@H](CCCCN)C(=O)N[C@H](CC(C)C)C(=O)N[C@H](Cc1ccccc1)C(=O)N[C@H](CCCCN)C(=O)N[C@H](CCCCN)C(=O)N[C@@H](C(=O)N1CCCC[C@H](C(N)=O)NC(=O)[C@@H](Cc2ccc(O)cc2)NC(=O)[C@@H](CCCNC(=N)N)NC(=O)[C@@H](CC(C)C)NC(=O)C1)[C@H](C)CC [compound 13] | 60.9 | 4 | 2.4 | 2 | 1.2 |  | 8 | 4.8 | 16 | 9.6 | 8 | 4.8 |  | 10^3 CFU/mL | 10^2 CFU/mL |
| CCCCCCCCCCCCCC(=O)N[C@H](CCCCN)C(=O)N[C@H](CCCCN)C(=O)N[C@H](CC(C)C)C(=O)N[C@H](Cc1ccccc1)C(=O)N[C@H](CCCCN)C(=O)N[C@H](CCCCN)C(=O)N[C@@H](C(=O)N1CCCC[C@H](C(N)=O)NC(=O)[C@@H](Cc2ccc(O)cc2)NC(=O)[C@@H](CCCNC(=N)N)NC(=O)[C@@H](CC(C)C)NC(=O)C1)[C@H](C)CC [compound 15] | 78.5 | 4 | 2.3 | 4 | 2.3 |  | 8 | 4.6 | 16 | 9.3 | 4 | 2.3 | 83 |  |  |
| CCCCCCCCCC(=O)N[C@H](CCCCN)C(=O)N[C@H](CCCCN)C(=O)N[C@H](CC(C)C)C(=O)N[C@H](Cc1ccccc1)C(=O)N[C@H](CCCCN)C(=O)N[C@H](CCCCN)C(=O)N1CCCC[C@H](C(N)=O)NC(=O)[C@@H](Cc2ccc(O)cc2)NC(=O)[C@@H](CCCNC(=N)N)NC(=O)[C@@H](CC(C)C)NC(=O)[C@@H]([C@H](C)CC)NC(=O)C1 [compound 16] | 61.3 | 8 | 4.8 | 4 | 2.4 |  | 8 | 4.8 | 16 | 9.7 | 4 | 2.4 | 59 |  |  |

From PMC9404711 (Antibiotics, 2022)
